{
  "source": "patent US20120177712A1",
  "about": "“ANTIMICROBIAL PARTICLE AND A PROCESS FOR PREPARING THE SAME” (priority 2009, published 2012)",
  "test_system": "S. epidermidis",
  "assay": "Antimicrobial activity on fabric (washed cotton swatches)",
  "type": "cell-based",
  "conditions": "in model detergent (0.6 g/L Na-LAS, 1.2 g/L Soda, 0.9 g/L NaCl), CPC 0.02 g/L or equivalent amount of particle, cotton swatches soaked, rinsed three times",
  "experimental": "Cotton swatches having dimension 4×4 cm were used in this example. The swatches were soaked in respective compositions as given below for 30 minutes and then washed for 30 minutes in a shaker bath. After that the swatches were rinsed three times with deionized water in a shaker bath. The liquid to cloth ration were maintained at 20 during the washing and rinsing step.",
  "data": [
    {"smiles": "CCCCCCCCCCCCCCCC[n+]1ccccc1", "note": "[CPC, Cetylpyridinium chloride]", "values": [
      {"measurement": "Log reduction", "result": 1.99}
    ]}
  ]
}
